Source: article PMC12669040, “Tumour-specific STING agonist synthesis via a two-component prodrug system” (Nature Chemistry, 2025)
Values joined by “and” are separate entries in the source; they are usually repeats but may differ in a detail not shown here. Equal entries are not always repeated.

Assays:
[1] = Colorimetric alkylation rate constant assay with TNB^2− as non-specific thiol; format: physicochemical; parameters: second-order: unit not given here; conditions: for remaining [B]: in µM
[2] = Colorimetric alkylation rate constant assay with thiol N1; format: physicochemical; conditions: for remaining [A]: N1 from calibration curve (N1 in uM); for remaining [A] / remaining [B]: in µM
[3] = Time 2891 sec, [B]0 = 250, Replicates 1-3
[4] = Time 3071 sec, [B]0 = 250, Replicates 1-3
[5] = Time 3252 sec, [B]0 = 250, Replicates 1-3
[6] = Time 3433 sec, [B]0 = 250, Replicates 1-3
[7] = Time 3613 sec, [B]0 = 250, Replicates 1-3

Structure (SMILES): O=C(CCl)Nc1ccccc1 [Compound C2]
- remaining [B] ([1]; Replicate 1, 723 sec, [B]0 = 250): 243.908
- remaining [B] ([1]; Replicate 1, 903 sec, [B]0 = 250): 243.568
- remaining [B] ([1]; Replicate 1, 1084 sec, [B]0 = 250): 243.228
- remaining [B] ([1]; Replicate 1, 1265 sec, [B]0 = 250): 242.9
- remaining [B] ([1]; Replicate 1, 1445 sec, [B]0 = 250): 242.598
- remaining [B] ([1]; Replicate 1, 1626 sec, [B]0 = 250): 242.232
- remaining [B] ([1]; Replicate 1, 1806 sec, [B]0 = 250): 241.905
- remaining [B] ([1]; Replicate 1, 1988 sec, [B]0 = 250): 241.539
- remaining [B] ([1]; Replicate 1, 2168 sec, [B]0 = 250): 241.224
- remaining [B] ([1]; Replicate 1, 2349 sec, [B]0 = 250): 240.884
- remaining [B] ([1]; Replicate 1, 2530 sec, [B]0 = 250): 240.607
- remaining [B] ([1]; Replicate 1, 2710 sec, [B]0 = 250): 240.229
- remaining [B] ([1]; Replicate 2, 542 sec, [B]0=250): 245.363
- remaining [B] ([1]; Replicate 2, 723 sec, [B]0=250): 245.048
- remaining [B] ([1]; Replicate 2, 903 sec, [B]0=250): 244.733
- remaining [B] ([1]; Replicate 2, 1084 sec, [B]0=250): 244.393
- remaining [B] ([1]; Replicate 2, 1265 sec, [B]0=250): 244.09
- remaining [B] ([1]; Replicate 2, 1445 sec, [B]0=250): 243.737
- remaining [B] ([1]; Replicate 2, 1626 sec, [B]0=250): 243.435
- remaining [B] ([1]; Replicate 2, 1806 sec, [B]0=250): 243.107
- remaining [B] ([1]; Replicate 2, 1988 sec, [B]0=250): 242.78
- remaining [B] ([1]; Replicate 2, 2168 sec, [B]0=250): 242.452
- remaining [B] ([1]; Replicate 2, 2349 sec, [B]0=250): 242.137
- remaining [B] ([1]; Replicate 2, 2530 sec, [B]0=250): 241.772
- remaining [B] ([1]; Replicate 2, 2710 sec, [B]0=250): 241.469
- remaining [B] ([1]; Replicate 3, 723 sec, [B]0=250): 245.156
- remaining [B] ([1]; Replicate 3, 903 sec, [B]0=250): 244.866
- remaining [B] ([1]; Replicate 3, 1084 sec, [B]0=250): 244.475
- remaining [B] ([1]; Replicate 3, 1265 sec, [B]0=250): 244.311
- remaining [B] ([1]; Replicate 3, 1445 sec, [B]0=250): 243.732
- remaining [B] ([1]; Replicate 3, 1626 sec, [B]0=250): 243.593
- remaining [B] ([1]; Replicate 3, 1806 sec, [B]0=250): 243.165
- remaining [B] ([1]; Replicate 3, 1988 sec, [B]0=250): 242.824
- remaining [B] ([1]; Replicate 3, 2168 sec, [B]0=250): 242.61
- remaining [B] ([1]; Replicate 3, 2349 sec, [B]0=250): 242.232
- remaining [B] ([1]; Replicate 3, 2530 sec, [B]0=250): 241.917
- remaining [B] ([1]; Replicate 3, 2710 sec, [B]0=250): 241.653
- second-order [1, 3]: 0.0003773 and 0.0003667 and 0.0004313
- remaining [B] [1, 3]: 241.388 and 239.977 and 241.154
- second-order [1, 4]: 0.0003928 and 0.0003885 and 0.000446
- remaining [B] [1, 4]: 240.909 and 239.662 and 240.814
- second-order [1, 5]: 0.0004061 and 0.0003977 and 0.0004618
- remaining [B] [1, 5]: 240.708 and 239.321 and 240.524
- second-order [1, 6]: 0.0004218 and 0.000411 and 0.0004772
- remaining [B] [1, 6]: 240.418 and 238.994 and 240.184
- second-order [1, 7]: 0.0004369 and 0.0004267 and 0.0004915
- remaining [B] [1, 7]: 240.077
- second-order ([1]; Time 3794 sec, [B]0 = 250, Replicates 1-3): 0.0004533 and 0.0004448 and 0.000507
- second-order ([1]; Time 3974 sec, [B]0 = 250, Replicates 1-3): 0.0004675 and 0.0004536 and 0.0005214
- second-order ([1]; Time 4155 sec, [B]0 = 250, Replicates 1-3): 0.0004823 and 0.0004725 and 0.0005334
- second-order ([1]; Time 4336 sec, [B]0 = 250, Replicates 1-3): 0.0004965 and 0.0004915 and 0.0005528
- second-order ([1]; Time 4516 sec, [B]0 = 250, Replicates 1-3): 0.0005127 and 0.0005034 and 0.0005668
- second-order ([1]; Time 4697 sec, [B]0 = 250, Replicates 1-3): 0.0005253 and 0.000516 and 0.0005808
- second-order ([1]; Time 4878 sec, [B]0 = 250, Replicates 1-3): 0.000541 and 0.0005322 and 0.0005962
- second-order ([1]; Time 5058 sec, [B]0 = 250, Replicates 1-3): 0.0005592 and 0.0005485 and 0.0006085
- second-order ([1]; Time 5239 sec, [B]0 = 250, Replicates 1-3): 0.0005708 and 0.0005619 and 0.0006247
- second-order ([1]; Time 5419 sec, [B]0 = 250, Replicates 1-3): 0.0005891 and 0.0005723 and 0.0006371
- second-order ([1]; Time 5600 sec, [B]0 = 250, Replicates 1-3): 0.0006027 and 0.0005925 and 0.000654
- second-order ([1]; Time 5781 sec, [B]0 = 250, Replicates 1-3): 0.0006182 and 0.000611 and 0.0006672
- second-order ([1]; Time 5961 sec, [B]0 = 250, Replicates 1-3): 0.0006343 and 0.000624 and 0.0006855
- remaining [A] ([2]; Replicate 1, time 576 sec): 80.4651
- remaining [B] ([2]; Replicate 1, time 576 sec, [B]0 = 250): 226.345
- second-order ([2]; Replicate 1, time 576 sec, second-order plot value): 0.001085
- remaining [A] ([2]; Replicate 1, time 606 sec): 79.6386
- remaining [B] ([2]; Replicate 1, time 606 sec, [B]0 = 250): 225.519
- second-order ([2]; Replicate 1, time 606 sec, second-order plot value): 0.001131
- remaining [A] ([2]; Replicate 2, time 576 sec): 80.4092
- remaining [B] ([2]; Replicate 2, time 576 sec, [B]0=250): 227.268
- second-order ([2]; Replicate 2, time 576 sec, second-order plot value): 0.001046
- remaining [A] ([2]; Replicate 2, time 606 sec): 79.1621
- remaining [B] ([2]; Replicate 2, time 606 sec, [B]0=250): 226.02
- second-order ([2]; Replicate 2, time 606 sec, second-order plot value): 0.001115
- remaining [A] ([2]; Replicate 3, time 576 sec): 81.6859
- remaining [B] ([2]; Replicate 3, time 576 sec, [B]0=250): 227.139
- second-order ([2]; Replicate 3, time 576 sec, second-order plot value): 0.001037
- remaining [A] ([2]; Replicate 3, time 606 sec): 80.8202
- remaining [B] ([2]; Replicate 3, time 606 sec, [B]0=250): 226.273
- second-order ([2]; Replicate 3, time 606 sec, second-order plot value): 0.001084
- remaining [B] ([2]; time 0 sec, [B]0 = 250, replicates 1-3): 247.836 and 246.58 and 246.712
- second-order ([2]; time 0 sec, replicates 1-3): 0.0001305 and 8.4046e-5 and 0.0001345
- remaining [B] ([2]; time 30 sec, [B]0 = 250, replicates 1-3): 246.591 and 244.557 and 245.38
- second-order ([2]; time 30 sec, replicates 1-3): 0.000185 and 0.0001335 and 0.0002172
- remaining [B] ([2]; time 60 sec, [B]0 = 250, replicates 1-3): 244.968 and 243.73 and 244.048
- second-order ([2]; time 60 sec, replicates 1-3): 0.0002407 and 0.0001994 and 0.0002516
- remaining [B] ([2]; time 91 sec, [B]0 = 250, replicates 1-3): 243.804 and 242.562 and 242.8
- second-order ([2]; time 91 sec, replicates 1-3): 0.0002937 and 0.0002475 and 0.000301
- remaining [B] ([2]; time 121 sec, [B]0 = 250, replicates 1-3): 243.047 and 241.251 and 241.752
- second-order ([2]; time 121 sec, replicates 1-3): 0.0003391 and 0.0002792 and 0.0003575
- remaining [B] ([2]; time 151 sec, [B]0 = 250, replicates 1-3): 242.371 and 240.196 and 240.873
- second-order ([2]; time 151 sec, replicates 1-3): 0.0003777 and 0.0003079 and 0.0004037
- remaining [B] ([2]; time 182 sec, [B]0 = 250, replicates 1-3): 241.478 and 239.142 and 240.023
- second-order ([2]; time 182 sec, replicates 1-3): 0.0004154 and 0.0003461 and 0.0004506
- remaining [B] ([2]; time 212 sec, [B]0 = 250, replicates 1-3): 240.882 and 238.087 and 239.314
- second-order ([2]; time 212 sec, replicates 1-3): 0.0004473 and 0.0003719 and 0.0004982
- remaining [B] ([2]; time 242 sec, [B]0 = 250, replicates 1-3): 239.746 and 237.004 and 238.605
- second-order ([2]; time 242 sec, replicates 1-3): 0.0004795 and 0.0004218 and 0.000548
- remaining [B] ([2]; time 273 sec, [B]0 = 250, replicates 1-3): 238.772 and 235.921 and 237.868
- second-order ([2]; time 273 sec, replicates 1-3): 0.0005133 and 0.0004652 and 0.0005985
- remaining [B] ([2]; time 303 sec, [B]0 = 250, replicates 1-3): 237.095 and 234.981 and 237.103
- second-order ([2]; time 303 sec, replicates 1-3): 0.0005489 and 0.0005414 and 0.0006431
- remaining [B] ([2]; time 333 sec, [B]0 = 250, replicates 1-3): 235.255 and 233.898 and 236.026
- second-order ([2]; time 333 sec, replicates 1-3): 0.0005997 and 0.0006273 and 0.0006953
- remaining [B] ([2]; time 364 sec, [B]0 = 250, replicates 1-3): 234.038 and 233.014 and 234.41
- second-order ([2]; time 364 sec, replicates 1-3): 0.0006774 and 0.0006854 and 0.0007385
- remaining [B] ([2]; time 394 sec, [B]0 = 250, replicates 1-3): 232.874 and 231.988 and 233.73
- second-order ([2]; time 394 sec, replicates 1-3): 0.0007107 and 0.0007421 and 0.0007895
- remaining [B] ([2]; time 424 sec, [B]0 = 250, replicates 1-3): 231.738 and 230.934 and 232.256
- second-order ([2]; time 424 sec, replicates 1-3): 0.0007842 and 0.0007984 and 0.0008427
- remaining [B] ([2]; time 454 sec, [B]0 = 250, replicates 1-3): 230.764 and 230.107 and 231.378
- second-order ([2]; time 454 sec, replicates 1-3): 0.0008288 and 0.0008475 and 0.000885
- remaining [B] ([2]; time 485 sec, [B]0 = 250, replicates 1-3): 229.871 and 229.167 and 230.13
- remaining [B] ([2]; time 515 sec, [B]0 = 250, replicates 1-3): 228.978 and 228.226 and 228.94
- second-order ([2]; time 515 sec, replicates 1-3): 0.0009559 and 0.0009395 and 0.0009836
- remaining [B] ([2]; time 545 sec, [B]0 = 250, replicates 1-3): 227.95 and 227.314 and 227.948
- second-order ([2]; time 545 sec, replicates 1-3): 0.001009 and 0.0009937 and 0.001032
